Measurements published in US12521393B2, “Cytotoxicity targeting chimeras for CCR2-expressing cells” (GLAXOSMITHKLINE INTELLECTUAL PROPERTY DEVELOPMENT LIMITED, priority 2021, dated 2026).

Key:
[1] = biological target: T1, CHOK1 cells engineered to overexpress human CCR2 (Homo sapiens, UniProt P41597); experiment: Antibody dependent cellular cytotoxicity (ADCC) reporter assay (Example 199); assay type: cell-based; conditions: with anti-cotinine antibody (SEQ ID NO: 11/12), Jurkat FcγRIIIa NFAT-luciferase reporter cells, 12-18 hours, EC50 in molar, average or individual runs; for EC50: read-out: ADCC Reporter Assay pEC50 (converted)
T1 construct: expressed in transfected cells; host or cells: CHOK1
Method: An antibody dependent cellular cytoxocity reporter assay was conducted using the following four assay components: (i) ARM compound of Formula (I) targeting CCR2 (concentrations ranging from […] to 10 μM) (ii) anti-cotinine antibody having a heavy chain sequence of SEQ ID NO: 11 and a light chain sequence of SEQ ID NO: 12 (rabbit variable region with human IgG1 Fc domain containing a DE mutation (S239D/1332E)) (concentrations ranging from 0.01 μg/mL to 200 μg/mL); (iii) target cells: CHOK1 cells engineered to overexpress either human CCR2 (typically 1000-20,000 cells per well) and (iv) reporter cells: Jurkat cells engineered to express FcγRIIIa with the reporter gene luciferase under the control of the NFAT promoter (typically 3000-75,000 cells per well). Reagents were combined in a final volume of 20 μL in a 384-well tissue culture treated plate. All four assay components were incubated together for about 12-18 hours. Thereafter, BioGlo Detection reagent (Promega) was added to the wells to lyse the cells and provide a substrate for the luciferase reporter protein. Luminescence signal was measured on a microplate reader and signal: background was calculated by dividing the signal of a test well by the signal obtained when no heterobivalent compound of Formula (I) was added. EC50 calculations were done using Graphpad Prism Software, specifically a nonlinear regression curve fit (Y=Bottom+(Top−Bottom)/(1+10A((LogEC50−X)*HillSlope))).
ARMs compounds of Formula (I) of the invention were tested for ADCC activity in the above assay in or more experimental runs and the results are shown in Table 3 below. Potency of the compounds of Formula (I) of the invention is reported as a pEC50 value. The pEC50 value is the negative log of the EC50 value, wherein the EC50 value is the half maximal effective concentration measured in molar (M). For compounds tested in more than one experimental run, the pEC50 value is reported as an average.

[2] = system: endogenous target monocytes in human PBMC; experiment: PBMC ex vivo monocyte depletion flow cytometry assay (Example 200); assay type: cell-based; conditions: with anti-cotinine antibody (SEQ ID NO: 11/12), 18-24 hours, EC50 in molar, read-out: Ex Vivo Depletion Assay pEC50 (converted)
Method in brief: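 Monocyte depletion is reported as pEC50, averaged or given individually across runs, and read by flow cytometry staining CD45, CD14 and CD4 with a viability dye. Compounds, diluted four-fold over 11 points from 1 mM DMSO stocks, were combined with 30 μg/mL Fc-enhanced anti-cotinine antibody and human PBMC, then incubated 18-24 h at 37° C.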

[3] = Blood drug concentration analysis by LC-MS/MS after IV dosing with anti-cotinine antibody (Example 201); assay type: in vivo; conditions: C57 background, human CCR2 knock-in, mouse; hCCR2 knock-in mice, IV 0.1 mpk compound + 10 mpk anti-cotinine antibody, whole blood, 48 hours post-dose; read-out: Exposure of Compound of Formula (I) 48 hours post-dose
Method: After bleeding, each mouse was sacrificed by cervical dislocation. […] Flow Cytometry Analysis:
Samples were analyzed on Q-Trap. […] The total run time was 2 minutes.

Structure (SMILES)	ADCC Reporter Assay pEC50 [1]	EC50 [2] [nM]	EC50 [1] [nM]	concentration at 48 h [3] [µg/mL]
CC(C)N(C)[C@@H]1CC[C@H](N2CC[C@H](Nc3ncnc4ccc(C(F)(F)F)cc34)C2=O)[C@H](NC(=O)[C@H]2CC[C@@H](NC(=O)CCCOCCCCOCCNC(=O)[C@H]3CC(=O)N(C)[C@@H]3c3cccnc3)CC2)C1 [Example 122, (2S,3S)-N-(2-(4-(4-(((1S,4s)-4-(((1R,2S,5R)-5-(Isopropyl(methyl)amino)-2-((S)-2-oxo-3-((6-(trifluoromethyl)quinazolin-4-yl)amino)pyrrolidin-1-yl)cyclohexyl)carbamoyl)cyclohexyl)amino)-4-oxobutoxy)butoxy)ethyl)-1-methyl-5-oxo-2-(pyridin-3-yl)pyrrolidine-3-carboxamide]	9	0.794	–	–
CC(C)N(C)[C@@H]1CC[C@H](N2CC[C@H](Nc3ncnc4ccc(C(F)(F)F)cc34)C2=O)[C@H](NC(=O)CCOCCOCCOCCOCCOCCNC(=O)[C@H]2CC(=O)N(C)[C@@H]2c2cccnc2)C1 [Example 40, (2S,3S)-N-(18-(((1R,2S,5R)-5-(Isopropyl(methyl)amino)-2-((S)-2-oxo-3-((6-(trifluoromethyl)quinazolin-4-yl)amino)pyrrolidin-1-yl)cyclohexyl)amino)-18-oxo-3,6,9,12,15-pentaoxaoctadecyl)-1-methyl-5-oxo-2-(pyridin-3-yl)pyrrolidine-3-carboxamide]	–	5.01	6.31	–
CC(C)N(C)[C@@H]1CC[C@H](N2CC[C@H](Nc3ncnc4ccc(C(F)(F)F)cc34)C2=O)[C@H](NC2CCN(C(=O)CCOCCOCCOCCOCCNC(=O)[C@H]3CC(=O)N(C)[C@@H]3c3cccnc3)CC2)C1 [Example 69, (2S,3S)-N-(15-(4-(((1R,2S,5R)-5-(Isopropyl(methyl)amino)-2-((S)-2-oxo-3-((6-(trifluoromethyl)quinazolin-4-yl)amino)pyrrolidin-1-yl)cyclohexyl)amino)piperidin-1-yl)-15-oxo-3,6,9,12-tetraoxapentadecyl)-1-methyl-5-oxo-2-(pyridin-3-yl)pyrrolidine-3-carboxamide]	–	1.58	0.316	0.0399
CC(C)N(C)[C@@H]1CC[C@H](N2CC[C@H](Nc3ncnc4ccc(C(F)(F)F)cc34)C2=O)[C@H](NC(=O)CCOCCOCCOCCOCCOCCOCCNC(=O)[C@H]2CC(=O)N(C)[C@@H]2c2cccnc2)C1 [Example 41, (2S,3S)-N-(21-(((1R,2S,5R)-5-(isopropyl(methyl)amino)-2-((S)-2-oxo-3-((6-(trifluoromethyl)quinazolin-4-yl)amino)pyrrolidin-1-yl)cyclohexyl)amino)-21-oxo-3,6,9,12,15,18-hexaoxahenicosyl)-1-methyl-5-oxo-2-(pyridin-3-yl)pyrrolidine-3-carboxamide]	–	2.51	2	–
CN1C(=O)C[C@H](C(=O)NCCOCCOCCOCCOCCOCCC(=O)N[C@@H]2C[C@H](NC(C)(C)C)CC[C@@H]2N2CC[C@H](Nc3ncnc4ccc(C(F)(F)F)cc34)C2=O)[C@H]1c1cccnc1 [Example 37, (2S,3S)-N-(18-(((1R,2S,5R)-5-(tert-Butylamino)-2-((S)-2-oxo-3-((6-(trifluoromethyl)quinazolin-4-yl)amino)pyrrolidin-1-yl)cyclohexyl)amino)-18-oxo-3,6,9,12,15-pentaoxaoctadecyl)-1-methyl-5-oxo-2-(pyridin-3-yl)pyrrolidine-3-carboxamide]	–	5.01	12.6	0.0487
CN1C(=O)C[C@H](C(=O)NCCOCCNC(=O)[C@H]2C[C@H](NC(=O)CCOCCC(=O)N[C@@H]3C[C@H](NC(C)(C)C)CC[C@@H]3N3CC[C@H](Nc4ncnc5ccc(C(F)(F)F)cc45)C3=O)C2)[C@H]1c1cccnc1 [Example 188, (2S,3S)-N-(2-(2-((1R,3S)-3-(3-(3-(((1R,2S,5R)-5-(tert-butylamino)-2-((S)-2-oxo-3-((6-(trifluoromethyl)quinazolin-4-yl)amino)pyrrolidin-1-yl)cyclohexyl)amino)-3-oxopropoxy)propanamido)cyclobutane-1-carboxamido)ethoxy)ethyl)-1-methyl-5-oxo-2-(pyridin-3-yl)pyrrolidine-3-carboxamide]	–	0.316	0.501	0.073
CN1C(=O)C[C@H](C(=O)NCCOCCOCCOCCOCCOCCOCCC(=O)N[C@@H]2C[C@H](NC(C)(C)C)CC[C@@H]2N2CC[C@H](Nc3ncnc4ccc(C(F)(F)F)cc34)C2=O)[C@H]1c1cccnc1 [Example 38, (2S,3S)-N-(21-(((1R,2S,5R)-5-(tert-Butylamino)-2-((S)-2-oxo-3-((6-(trifluoromethyl)quinazolin-4-yl)amino)pyrrolidin-1-yl)cyclohexyl)amino)-21-oxo-3,6,9,12,15,18-hexaoxahenicosyl)-1-methyl-5-oxo-2-(pyridin-3-yl)pyrrolidine-3-carboxamide]	–	1.58	2.51	0.0476
